Measured values published in patent US12692256B2, “Salts and crystalline forms of a TAAR1 agonist” (Hoffmann-La Roche Inc., priority 2020, dated 2026).
Entries after “also recorded” stand apart in the source; their conditions may differ. Structures can show the parent of a compound that is named as a salt.

Assays:
[1] = Dynamic Vapour Sorption (DVS) hygroscopicity; type: physicochemical; conditions: for Hygroscopicity, weight increase: 0%-RH to 90%-RH at 25° C.; for Hygroscopicity: increase in mass when relative humidity is raised from 0%-RH to 90%-RH at 25° C.
Method: For each salt formation experiment 5-ethyl-4-methyl-N-[4-[(2S) morpholin-2-yl]phenyl]-1H-pyrazole-3-carboxamide (approx. 450 mg) was dissolved in dioxane (approx. 90 mL) at elevated temperature (approx. 90° C.) in a 100 mL glass vial. The clear solution was then cooled to 60° C. (to approx. 40° C. for adipic acid) prior to the addition of approx. 1.1 equivalents (approx. 0.55 equivalents for sulfuric acid) of a 0.5 M (0.2 M for fumaric acid) stock solution in dioxane of the respective acid under agitation. The reaction mixture was then allowed to reach ambient temperature passively and further agitated overnight. In the cases of adipic acid, the solvent was partially evaporated at this stage to increase the yield. The solid residue was collected by filtration and rinsed with approx. 2 mL of dioxane. A sample of the wet product was analyzed by XRPD. The remainder of the product was dried in a vacuum tray dryer at 50° C./<10 mbar for 2 days prior to analysis by XRPD, DSC, TGA, and, if appropriate, also by DVS.
Moisture sorption/desorption data were collected on a DVS Advantage, a DVS Adventure, or a DVS Intrinsic (SMS Surface Measurements Systems) moisture balance system. The sorption/desorption isotherms were measured stepwise in a range from 0%-RH to 90%-RH at typically 25° C. A weight change of typically <0.001%/min was chosen as criterion to switch to the next level of relative humidity (with a maximum equilibration time of typically 24 hours, if the weight change criterion was not met). The data were corrected for the initial moisture content of the samples by taking the weight after drying of the samples at 0%-RH as zero point. The hygroscopicity of a given substance is characterized (by close analogy with the European Pharmacopoeia) by the increase in mass when the relative humidity is raised from 0%-RH to 90%-RH at 25° C.: […]

Aqueous solubility = type: physicochemical
Method: Aqueous solubility was determined by suspending sufficient compound in water water to give a maximum final concentration of 100 mg/mL. The solution was stirred for 24 hours at room temperature (25° C.±5° C.) on a magnetic stirrer using a magnetic stir bar. The final pH of the suspension was measured after 24 hours with a standard pH meter. The suspension was filtered by centrifugation through a ≤0.45 μm PVDF filter. The filtrate was then diluted 1:500 using a solution of ethanol: water (1:1). Quantification was by HPLC using a previously developed HPLC method (Table 4). A standard curve with a concentration range from 0.001 mg/mL-0.3 mg/ml. The solubility was automatically calculated using the peak area of the main peak in the chromatogram.
Aqueous solubility was determined by suspending sufficient compound in water to give a maximum final concentration of ≥10 mg/mL of the parent free-form of the compound. The suspension was equilibrated at 25° C. for 24 hours then the pH was measured. The suspension was then filtered through a glass fibre C filter. The filtrate was then diluted by an appropriate factor e.g. 101. Quantitation was by HPLC with reference to a standard solution of approximately 0.25 mg/mL in DMSO. Different volumes of the standard, diluted and undiluted sample solutions were injected. […]

[2] = crystalline Form A, between 0-90% RH

## CCc1[nH]nc(C(=O)Nc2ccc([C@H]3CNCCO3)cc2)c1C [5-ethyl-4-methyl-N-[4-[(2S)morpholin-2-yl]phenyl]-1H-pyrazole-3-carboxamide, mono hydrochloric acid salt]
[1]; crystalline Form A
  relative humidity at which rate of water uptake was observed to increase: > 80 % RH
[1]; [2]
  hysteresis (DVS): no hysteresis
  mass uptake (DVS): < 0.1%
Aqueous solubility; saturated aqueous solution after 24 hours
  pH of saturated aqueous solution: 5.3
Aqueous solubility; water, thermodynamic from solid, saturated aqueous solution, 24 hours at 25° C., pH 5.3
  solubility at 24 h: 52.8 mg/mL

## CCc1[nH]nc(C(=O)Nc2ccc([C@H]3CNCCO3)cc2)c1C [Adipic acid, 5-ethyl-4-methyl-N-[4-[(2S)morpholin-2-yl]phenyl]-1H-pyrazole-3-carboxamide]
[1]; re-crystallized salt forms
  Hygroscopicity, weight increase: (0.2%-m/m

## CCc1[nH]nc(C(=O)Nc2ccc([C@H]3CNCCO3)cc2)c1C [Citric acid, 5-ethyl-4-methyl-N-[4-[(2S)morpholin-2-yl]phenyl]-1H-pyrazole-3-carboxamide]
[1]; crude salt forms
  Hygroscopicity: Very hygroscopic; also recorded: (deliquescent) (deliquescent: sufficient water is adsorbed to form a liquid)

## CCc1[nH]nc(C(=O)Nc2ccc([C@H]3CNCCO3)cc2)c1C [Glycolic acid, 5-ethyl-4-methyl-N-[4-[(2S)morpholin-2-yl]phenyl]-1H-pyrazole-3-carboxamide]
[1]; crude salt forms
  Hygroscopicity: Very hygroscopic; also recorded: (deliquescent) (deliquescent: sufficient water is adsorbed to form a liquid)

## CCc1[nH]nc(C(=O)Nc2ccc([C@H]3CNCCO3)cc2)c1C [Hydrochloric acid, 5-ethyl-4-methyl-N-[4-[(2S)morpholin-2-yl]phenyl]-1H-pyrazole-3-carboxamide]
[1]; crude salt forms
  Hygroscopicity, weight increase: (0.5%-m/m weight
[1]; re-crystallized salt forms
  Hygroscopicity, weight increase: (<0.1%-m/m
  Hygroscopicity: Non-hygroscopic

## CCc1[nH]nc(C(=O)Nc2ccc([C@H]3CNCCO3)cc2)c1C [L(+)-Tartaric acid, 5-ethyl-4-methyl-N-[4-[(2S)morpholin-2-yl]phenyl]-1H-pyrazole-3-carboxamide]
[1]; re-crystallized salt forms
  Hygroscopicity, weight increase: (0.4%-m/m

## CCc1[nH]nc(C(=O)Nc2ccc([C@H]3CNCCO3)cc2)c1C [Methanesulfonic acid, 5-ethyl-4-methyl-N-[4-[(2S)morpholin-2-yl]phenyl]-1H-pyrazole-3-carboxamide]
[1]; crude salt form, at 25° C.
  phase transformation (relative humidity): at >80%-RH at
[1]; crude salt forms
  Hygroscopicity, weight increase: (8.5%-m/m weight
  Hygroscopicity: Hygroscopic

## CCc1[nH]nc(C(=O)Nc2ccc([C@H]3CNCCO3)cc2)c1C [Phosphoric acid, 5-ethyl-4-methyl-N-[4-[(2S)morpholin-2-yl]phenyl]-1H-pyrazole-3-carboxamide]
[1]; re-crystallized salt forms
  Hygroscopicity, weight increase: (0.2%-m/m

## CCc1[nH]nc(C(=O)Nc2ccc([C@H]3CNCCO3)cc2)c1C [Sulfuric acid, 5-ethyl-4-methyl-N-[4-[(2S)morpholin-2-yl]phenyl]-1H-pyrazole-3-carboxamide]
[1]; re-crystallized salt forms
  Hygroscopicity, weight increase: (0.1%-m/m
  Hygroscopicity: Non-hygroscopic

## CCc1[nH]nc(C(=O)Nc2ccc([C@H]3CNCCO3)cc2)c1C [p-Toluenesulfonic acid, 5-ethyl-4-methyl-N-[4-[(2S)morpholin-2-yl]phenyl]-1H-pyrazole-3-carboxamide]
[1]; re-crystallized salt forms
  Hygroscopicity, weight increase: (<0.1%-m/m
  Hygroscopicity: Non-hygroscopic
